Measured values published in US9487561B2, “Biologically active complex and its preparation” (HAMLET PHARMA AB, priority 2010, dated 2016).
Entries after “also recorded” stand apart in the source; their conditions may differ.

Key:
[1] = tested on: tumor cells; test: ion fluxes (Ca^2+, K^+, Na^+) quantified by fluorometry; type: cell-based; conditions: for effect of inhibitor on HAMLET Ca^2+ fluxes: FIG. 1B
Experimental: FIG. 1. […] (A, upper panels) Bright-field micrographs showing glass-adherent egg yolk vesicles before and after a 40-minute exposure to HAMLET, α-lactalbumin (HLA) or oleic acid (OA). Morphology was recorded by differential interference contrast microscopy. Scale bar […]. […] (A, lower panels) Effect of HAMLET on PMVs from lung carcinoma cells. PMVs on glass-bottom dishes were exposed to HAMLET, HLA or OA and stained with Nile red for confocal microscopy. […] As a control PMVs from healthy, differentiated cells on glass-bottom dishes were also exposed to HAMLET and stained with Nile red.
FIG. 7. Ion Fluxes. (A) Ion fluxes induced by HAMLET (35 μM) or it constituents (35 μM All-ala α-lactalbumin or 175 μM sodium oleate) were quantified by fluorometry, as described. […] (B) The global transcriptional response to HAMLET was studied by microarray and the top 3000 genes by variance visualized in a Heatmap. […] Darker bands=high expression, lighter bands=low.
(§1) The FLUXOR™ potassium (K^+) channel assay was performed on the TECAN infinite F200 (Tecan Group, Switzerland), according to the manufacturer's instructions (Invitrogen). Briefly, this involved FLUXOR™ loading buffer (Hank's Balanced Saline Solution, (HBSS) buffered with 20 mM HEPES and pH adjusted to 7.4 with NaOH. POWERLOAD™ concentrate and water-soluble Probenecid were used respectively to enhance the dye solubility and retention, respectively. Media were removed from the cell plates manually, and 80 μL of loading buffer containing the FLUXOR™ dye mix was applied to each well. Once inside the cell, the nonfluorescent AM ester form of the FLUXOR™ dye is cleaved by endogenous esterases into a thallium-sensitive indicator. The dye was loaded for 60 minutes at room temperature and then removed with the supernatant. After washing with dye-free PBS buffer, a final volume of 80 μL assay buffer containing water-soluble probenecid was added. Cells received one of the following channel inhibitors: 3.3 μL per well of 30 mM amiloride, 3.0 μL of 32 mM BaCl2, 1.8 μL of 5.4 mM gadolinium, 3 μL 3.2 mM tetrandrine and 2.3 μL of 2.6 mM ruthenium red, and were then incubated at room temperature (23-25° C.) for 30 minutes to allow equilibration of the test compounds. Prior to injection, stimulation buffer was prepared from the chloride-free buffer and thallium reagents provided in the kit as well as HAMLET, to achieve a final added concentrations of 2 mM free Tl+ and 35 μM HAMLET after 1:5 dilution upon injection of the stimulus buffer onto cells that had been loaded with FLUXOR™ dye.

[2] = tested on: A549 lung carcinoma cells; test: cell death assay (trypan blue exclusion, ATP levels); type: cell-based, human; conditions: for effect of channel inhibitor on HAMLET-induced cell death: 30 minutes pretreatment, HAMLET three hours; for tumoricidal effect (trypan blue exclusion, ATP): Example 2, 3 hours, molar concentrations based on stoichiometry in HAMLET, dose response
Experimental: Cells were detached from cell culture flasks with versen (0.2 g EDTA in 200 ml H2O and 800 ml PBS), washed with PBS and resuspended in serum-free RPMI-1640. HAMLET dissolved in PBS was incubated with cells (0.5×10^6/ml for A549, A498 and HeLa cells; 1×10^6/ml for Jurkat) at 37° C. FCS was added after 1 hour. Cell death was quantified by trypan blue exclusion (Chroma Gesellschaft Schmid & Co) or by measuring ATP levels (ATPlite Kit, PerkinElmer, Infinite 200, Tecan). Light images were captured using the HOLOMONITOR™ M2 digital holographic microscope (Phase Holographic Imaging AB, Lund, Sweden).
For studies with inhibitors, cells were pretreated for 30 minutes. Inhibitors used were Gadolinium chloride (GdCl3, 100 μM), Barium chloride (BaCl2, 1 mM), Ruthenium red (30 μM), tetrandrine (10 μM) and amiloride (1 mM), all from Sigma Aldrich. For p38 inhibition, SB202190 (20 μM, Sigma Aldrich) or BIRB796 (10 μM, Axon Medchem) dissolved in DMSO was used. The wells were washed twice with PBS and new medium with inhibitor was added. For RNA interference, FlexiTube siRNA Premixes against MAPK11 (SI00606053), MAPK14 (SI00300769) and All Star Negative Control siRNA (SI03650318) from Qiagen was used. A549 forward was transfected using 25 nM final siRNA concentration in 24-well plate. After 48 hours, knockdown was examined by Western blot (anti-p38, 1:1000, Cell Signaling) and RT-PCR (MAPK14, QT00079345, QIAGEN).
To examine if functional ion channels are important for the tumoricidal activity of HAMLET, A549 lung carcinoma cells in suspension were pretreated with the channel inhibitors for 30 minutes and exposed to increasing concentrations of HAMLET for three hours.
A549 cells were seeded to a density of 0.8-1.0×10^6 cells/well in RPMI without FCS. Different volumes of HAMLET/oleate and oleic acid solutions were added. The cells were incubated for 1 hour at 37° C. 5% CO2 for 1 hour before 50 μl of FCS (5% final concentration) were added to the wells. The cells were then further incubated for additional 2 hours before the viability were determined by trypan blue exclusion and ATP measurements.

[3] = tested on: potassium channels in A549, lung carcinoma cell lines; test: FLUXOR potassium (K^+) channel assay, Thallium (Tl^+) indicator; type: cell-based, human; conditions: HAMLET 35 μM; for effect of channel blocker on K^+ flux in response to HAMLET: carcinoma cells, 30 minutes pretreatment; for potassium channel activity (fluorescence signal): oleate 175 μM (5× the HAMLET concentration), peptides mixed with oleate and immediately added
Experimental: as §1
To distinguish Ca^2+ mobilization from intracellular stores from the influx of extracellular Ca^2+, EGTA was then added to the cell medium. […] K^+ fluxes across tumor cell membranes were subsequently quantified under the same experimental conditions, using the fluorophore FLUXOR™, which fluoresces after thallium has entered cells through K^+ channels.
Potassium channel activity was therefore measured in A549, lung carcinoma cell lines using an indicator, which emits fluorescence signal upon entering the cells via opened potassium channels, Thallium (Tl^+) indicator (FIG. 18).

[4] = 35 μM All-ala α-lactalbumin or 175 μM sodium oleate, FIG. 7A

`[Ba+2].[Cl-].[Cl-]` [BaCl2, barium chloride] was tested, and the “effect of inhibitor on HAMLET Ca^2+ fluxes” value [1] was “inhibited”, the “effect of channel inhibitor on HAMLET-induced cell death” value [2] was “markedly reduced cell death” and the “effect of channel blocker on K^+ flux in response to HAMLET” value [3] was “intermediate inhibition”.

In the case of `NC(N)=NC(=O)c1nc(Cl)c(N)nc1N` [amiloride, 3,5-diamino-6-chloro-N-(diaminomethylene)pyrazine-2-carboxamide], the “effect of inhibitor on HAMLET Ca^2+ fluxes” value [1] is reported as “inhibited”, the “effect of channel inhibitor on HAMLET-induced cell death” value [2] is reported as “markedly reduced cell death” and the “effect of channel blocker on K^+ flux in response to HAMLET” value [3] is reported as “intermediate inhibition”.

For `CCCCCCCC/C=C\CCCCCCCC(=O)[O-].[Na+]` [oleate, sodium oleate], the “K^+ fluxes” value [1, 4] was “triggered K^+ fluxes”, the “Na^+ or Ca^2+ fluxes” value [1, 4] was “low” and the “tumoricidal effect (trypan blue exclusion, ATP)” value [2] was “tumoricidal; also recorded: stronger than that of oleic acid”. For the same molecule, the “concentration at which tumor cells were killed, relative to concentration in HAMLET” value ([2]; Example 2, dose response) was “three to five times higher than the concentration in HAMLET”, the “tumoricidal effect at concentrations corresponding to 15× that of HAMLET (35 μM)” value ([2]; FIG. 7F, cell line not stated) was “not tumoricidal” and the “potassium channel activity (fluorescence signal)” value [3] was “potassium channels were activated by oleate alone, but at lower efficiency than HAMLET”.

B1: HAMLET (protein, UniProt P00709 20-142, looked up)
Alpha-lactalbumin: KQFTKCELSQLLKDIDGYGGIALPELICTMFHTSGYDTQAIVENNESTEYGLFQISNKLWCKSSQVPQSRNICDISCDKFLDDDITDDIMCAKKILDIKGIDYWLAHKALCTEKLEQWLCEKL
modifications: oleic acid complex
For B1, the “tumoricidal effect (trypan blue exclusion, ATP)” value [2] was “kills tumor cells more efficiently than protein free oleate or oleic acid”, the “lethal response (trypan blue exclusion, ATP levels)” value ([2]; increasing concentrations, three hours, no inhibitors) was “rapid, dose-dependent lethal response” and the “potassium channel activity (fluorescence signal)” value [3] was “rapidly opened the K^+ channels; also recorded: triggers a rapid potassium flux”.
